Test results taken from patent EP2229935A1, “Peptide derivatives or pharmaceutically acceptable salts thereof, method for producing the same, use of said derivatives and pharmaceutical composition” (Nebolsin, Vladimir Evgenievich, priority 1997, dated 1999).
Marks after values point to notes of the source that are not given here.

Tests used:
[1] = tested on: mongrel guinea-pigs; assay: Food anaphylaxis (active anaphylactic shock) in OVA-sensitized guinea pigs; details: oral 3 days before provoking anaphylaxis, 50 µg/kg
[2] = tested on: Wistar male rats; assay: Blood glucose level in rats with streptozotocine diabetes; type: in vivo; details: for Blood glucose level: Initial level: intragastral four days
Procedure: Experiments were carried out on Wistar male rats weighing 250-300 g. Experimental diabetes was induced with single intravenous injection of streptozotocine (the Synthez cooperative enterprise at the IMBG of the Academy of Sciences of Ukraine) at a dose 42 mg/kg to rats which were preliminarily fasting for 24 hours with access to food immediately following injection. Rats were selected for experiment 2 weeks after diabetes induction with glycemia 120-180 mg/dl. Each group included 12 animals.
The compounds were intragastrally administered to intact animals and to rats with streptozotocine diabetes for four days at daily doses 50 µg/kg and 500 µg/kg in water solution at a rate of 1 ml per 200 g of body mass. Intact animals were given the compounds III and XLIV, and rats with induced diabetes were given the compound XLIV. Check blood glucose level determination was done at the day of experiment, then animals were administered the test compounds and were deprived of food. The control animals received a respective water volume. Effect was estimated by change in blood glucose level in 2 and 5 hours. Then animals received forage and 24 hours after the last drug administration blood was again sampled for examination. 0.1 ml of blood were collected from the tail vein. Glucose level was determined using the o-toluidine method.
Glucose level was calculated in mg/dl using standard glucose solutions. Then the degree of change in glucose level in relation to the initial level was determined for each animal with its expression in percent from the initial level. Final calculation was performed for each group of animals. Each group included 10 animals.

[3] = tested on: Lewis pulmonary carcinoma (LLC); assay: Lewis pulmonary carcinoma growth; type: in vivo; details: mice with LLC, day 12
Procedure: Experiments were carried out on male mice with initial body mass 18-20 g. Each group included 10 animals. […] Administration of compounds II, III, IX, X, XII, XIV, XV, XVI, XVII, XIX, XXII, XLVII in drinking water was commenced 24 hours following transplantation and continued till the end of experiment. Effect of the compounds on Lewis rat pulmonary carcinoma (LLC) was estimated by day 12 of experiment by change in tumor volume expressed in mm^3.

[4] = tested on: mongrel guinea-pigs; details: po, 0.05 mg/kg
[5] = tested on: [C^14]-arachidonic acid; assay: Metabolism of [C^14]-arachidonic acid in pulmonary tissue homogenate of treated mice; type: in vivo, CBA male mice; details: CBA mice lung homogenate; 50 µg/kg for three days
Procedure: Studies were carried out on CBA male mice fed a standard vivarium ration. […] Then animals were sacrified, their lungs were taken out, frozen in liquid nitrogen, homogenized in a glass homogenizer manufactured by the Wheaton company (U.S.A.) at +4°C in 10 volumes 0.05 M Tris-HCl buffer. […] Densitometry of the autoradiochromatograms obtained on the X-ray films X-Omat AR (Kodak, U.S.A.) and HS 11 (ORWO, Germany) were performed on the KS 3 densiscan (Kipp and Zonnen, Holland). Quantative analysis of individual eucosanoids was carried out using radiometry of the fractions obtained with high performance liquid chromatography (the Gilson company HPLC-system, France; the Du Pont company ZORBAX C8 column, U.S.A.) and with elution of spots on TLC-plates.

[6] = tested on: encephalomyocarditis virus; assay: Protection of mice against encephalomyocarditis virus infection; type: in vivo; details: 100 LD50 virus, once intraperitoneally 24 hours after infection, 30 µg/kg
Procedure: Studies ere carried out on mongrel mice of both sexes with initial body mass 10-11 g. The control and experimental groups included 30 animals each. Compound XLIV and the reference drug interferon inducer Ridostine were administered once intraperitoneally 24 hours after infection of mice with encephalomyocarditis virus at doses 30 µg/kg and 5.0 mg/kg, respectively. Encephalomyocarditis virus was administered at a dose 100 LD50. Antiviral activity was determined by change in mean lifetime (MLT) of mice and by the degree of protection against lethal viral infection.

[7] = tested on: Human lymphocytes; assay: PHA-induced blasttransformation of lymphocytes; type: cell-based
Procedure: Human lymphocytes were used for blasttransformation reaction [Kiseleva E.P., Tsveibakh A.S., Goldman E.I., Pigareva N.V. Application of a micromethod to study blasttransformation of lymphocytes in humans and animals. Immunology (1985), No 1, pp. 76-78]. 10 ml blood were collected into a sterile syringe containing heparine (to final concentration 25 U/ml) and incubated to sediment red blood cells (60-90 minutes at 37°C). Leukocytic suspension layer was selected and the number of nucleated cells was calculated. The cells obtained in such a way were incubated for 72 hours in a humid atmosphere with 5% CO2 at 37°C in the cells of plates for immune reactions in RPMI-1640 medium comprising 15% fetal calf serum, […] Neomycine (incubation mixture volume 0.15 ml). 5 x 10^5 cells were introduced into each plate cell. Incubation was carried out in the presence or absence of mitogen phytohemagglutinin (PHA) (Sigma) […] or concanavalin A (ConA) (Sigma) […] with or without addition of the test compounds at different concentrations. […] H^3 -thymidine in RPMI-1640 medium were introduced into each cell 16 hours before incubation termination. Following culturing period termination, 0.15 ml cellular suspension from each plate cell were transferred on the FN-8 paper filters. Filters were dried, washed two times with normal saline for 5 minutes then twice with TCA for 60 minutes. After drying, radioactivity of samples was calculated on a counter in the ZhS-8 scintillator. Stimulation index was calculated as ratio of sample radioactivity with mitogen to sample radioactivity without mitogen.

Q: For `O=C(O)CCCC(=O)NCCc1c[nH]cn1` [compound III, N-GLUTARYLHISTAMINE], which Lethality in percent [1] is on record?
A: 6.7** percent

Q: What about the “Blood glucose level in 2 hours, percent from the initial level” value ([2]; 50 µg/kg) of the same molecule?
A: 65.4 ± 4.3%

Q: And the “Blood glucose level in 5 hours, percent from the initial level” value ([2]; 50 µg/kg)?
A: 43.9 ± 4.9%

Q: And the “Blood glucose level in 24 hours, percent from the initial level” value ([2]; 50 µg/kg)?
A: 83.7 ± 6.6%

Q: And the “Blood glucose level: mg/dl in 2 hours” value ([2]; 50 µg/kg)?
A: 94.4 ± 5.4 mg/dL

Q: And the “Blood glucose level: mg/dl in 5 hours” value ([2]; 50 µg/kg)?
A: 64.1 ± 5.0 mg/dL

Q: And the “Blood glucose level: mg/dl in 24 hours” value ([2]; 50 µg/kg)?
A: 122.2 ± 9.2 mg/dL

Q: What about the “Blood glucose level in 2 hours, percent from the initial level” value ([2]; 500 µg/kg) of the same molecule?
A: 67.6 ± 3.6%

Q: What about the “Blood glucose level in 5 hours, percent from the initial level” value ([2]; 500 µg/kg) of the same molecule?
A: 44.9 ± 4.5%

Q: What about the “Blood glucose level in 24 hours, percent from the initial level” value ([2]; 500 µg/kg) of the same molecule?
A: 98.9 ± 10.2%

Q: And the “Blood glucose level: mg/dl in 2 hours” value ([2]; 500 µg/kg)?
A: 98.8 ± 5.6 mg/dL

Q: What about the “Blood glucose level: mg/dl in 5 hours” value ([2]; 500 µg/kg) of the same molecule?
A: 65.1 ± 1.1 mg/dL

Q: And the “Blood glucose level: mg/dl in 24 hours” value ([2]; 500 µg/kg)?
A: 143.4 ± 10.9 mg/dL

Q: And the “Blood glucose level: Initial level” value ([2]; 50 µg/kg)?
A: 146.9 ± 8.2 mg/dL

Q: And the “Blood glucose level: Initial level” value ([2]; 500 µg/kg)?
A: 145.2 ± 10.6 mg/dL

Q: What about the Growth inhibition percent ([3]; compound in drinking water) of the same molecule?
A: 53%

Q: What about the “Tumor volume (mm^3)” value ([3]; compound in drinking water from 24 hours after transplantation) of the same molecule?
A: 1249 ± 168** mm^3

Q: What about the Anaphylactic index [4] of the same molecule?
A: 0.83*

Q: And the Seizures in percent [4]?
A: 13,3* percent

Q: And the “5-HETE+HHT, percent of AA conversion” value [5]?
A: 13.64 ± 0.26% of AA conversion

Q: And the “6-keto-PGF1α, percent of AA conversion” value [5]?
A: 7.95 ± 0.28% of AA conversion

Q: And the “12-, 15-HETE, percent of AA conversion” value [5]?
A: 23.82 ± 0.82% of AA conversion

Q: What about the “PGE2, percent of AA conversion” value [5] of the same molecule?
A: 3.07 ± 0.11% of AA conversion

Q: What about the “PGF2α, percent of AA conversion” value [5] of the same molecule?
A: 8.05 ± 0.15% of AA conversion

Q: What about the “Phospholipids, percent of AA conversion” value [5] of the same molecule?
A: 7.41 ± 0.25% of AA conversion

Q: And the “TXB2, percent of AA conversion” value [5]?
A: 5.76 ± 0.24% of AA conversion

Q: What about the “Unmetabolized AA, percent of AA conversion” value [5] of the same molecule?
A: 15.32 ± 1.56% of AA conversion

Q: γ-L-glutamylhistamine [compound XLIV] was tested. Which “MLT, days” value [6] did it give?
A: 12.5* days

Q: What about the “Protection degree, percent” value [6] of the same molecule?
A: 17.0%

Q: And the “Survival rate, percent” value [6]?
A: 30.3* percent

Q: What about the “blasttranformation reaction of human lymphocytes induced by PHA” value [7] of the same molecule?
A: stimulating effect

Q: And the “Radioactivity, number of pulses for 20 seconds” value (shortened to “Radioactivity, number of pulses”) ([7]; 10^-4 M/l, +PHA)?
A: 3276 ± 225 number of pulses for 20 seconds

Q: What about the Stimulation index ([7]; 10^-4 M/l, +PHA) of the same molecule?
A: 10.9

Q: And the “Radioactivity, number of pulses” value ([7]; 10^-4 M/l, no mitogen)?
A: 301 ± 103 number of pulses for 20 seconds

Q: What about the “Radioactivity, number of pulses” value ([7]; 10^-5 M/l, +PHA) of the same molecule?
A: 2999 ± 213 number of pulses for 20 seconds

Q: And the Stimulation index ([7]; 10^-5 M/l, +PHA)?
A: 23.2

Q: And the “Radioactivity, number of pulses” value ([7]; 10^-5 M/l, no mitogen)?
A: 132 ± 13 number of pulses for 20 seconds

Q: What about the “Radioactivity, number of pulses” value ([7]; 10^-6 M/l, +PHA) of the same molecule?
A: 4414 ± 570 number of pulses for 20 seconds

Q: And the Stimulation index ([7]; 10^-6 M/l, +PHA)?
A: 29.6

Q: What about the “Radioactivity, number of pulses” value ([7]; 10^-6 M/l, no mitogen) of the same molecule?
A: 150 ± 33 number of pulses for 20 seconds

Q: And the “Radioactivity, number of pulses” value ([7]; 10^-7 M/l, +PHA)?
A: 2960 ± 210 number of pulses for 20 seconds

Q: What about the Stimulation index ([7]; 10^-7 M/l, +PHA) of the same molecule?
A: 9.9

Q: And the “Radioactivity, number of pulses” value ([7]; 10^-7 M/l, no mitogen)?
A: 300 ± 107 number of pulses for 20 seconds

Q: What about the “Radioactivity, number of pulses” value ([7]; 10^-8 M/l, +PHA) of the same molecule?
A: 3830 ± 286 number of pulses for 20 seconds

Q: And the Stimulation index ([7]; 10^-8 M/l, +PHA)?
A: 14.7

Q: What about the “Radioactivity, number of pulses” value ([7]; 10^-8 M/l, no mitogen) of the same molecule?
A: 261 ± 100 number of pulses for 20 seconds
